Consider seven compounds from ChEMBL document CHEMBL4808184, “Discovery and Optimization of DNA Gyrase and Topoisomerase IV Inhibitors with Potent Activity against Fluoroquinolone-Resistant Gram-Positive Bacteria” (J Med Chem, 2021).

The test system of one series is Streptococcus pneumoniae. As to the kind of experiment: microbe, parasite or virus in culture. The settings on record: ATCC 49619.
Series [1] in a line: physchem. The settings on record: buffer, pH 7.
Another series deals with K562. The series can be described thus: cells. The settings on record: Homo sapiens, K562, 72 h.
The nature of series [2]: in vivo. The settings on record: rat, po, 3.35 mg/kg.
The subject of series [3] is Staphylococcus aureus. As to the kind of experiment: microbe, parasite or virus in culture. Particulars: ATCC 49951.
Series [4] can be described thus: physchem. The settings on record: octanol/water, pH 7.4.
A short description of series [5]: in vitro. Particulars: human, Caco-2.
Series [6] is described as follows: in vitro. Particulars: human, plasma.
In another series the test system is Enterococcus faecalis. As to the kind of experiment: microbe, parasite or virus in culture. The settings on record: ATCC 29212.
A short description of series [7]: in vitro. Particulars: CD1, mouse, plasma.
Series [8] deals with Staphylococcus aureus. As to the kind of experiment: microbe, parasite or virus in culture. Particulars: ATCC 49951. The source holds these as a separate data set.
Series [9] in a line: in vivo. The settings on record: rat, po, 3.35 mg/kg. The source holds these as a separate data set.
In series [10] the test system is Staphylococcus aureus. The series can be described thus: microbe, parasite or virus in culture. Particulars: ATCC 49951. This is another data set of the same source.
Series [11] in a line: in vivo. The settings on record: rat, iv, 3.35 mg/kg.
The nature of series [12]: in vitro. The settings on record: human, Caco-2. This is another data set of the same source.
A short description of series [13]: in vitro. The settings on record: Sprague-Dawley, rat, plasma.
The nature of series [14]: in vivo. Particulars: rat, po, 3.35 mg/kg. This is another data set of the same source.
The nature of series [15]: in vivo. Particulars: rat, iv, 3.35 mg/kg. This is another data set of the same source.
Series [16] can be described thus: in vivo. Particulars: rat, po, 3.35 mg/kg. The source holds these as a separate data set.
Series [17] in a line: physchem.
The test system of another series is HepG2. The series can be described thus: cells. The settings on record: Homo sapiens, HepG2, 72 h.
Series [18] in a line: in vivo. The settings on record: rat, po, 5 mg/kg.
Series [19] in a line: in vivo. Particulars: rat, 5 mg/kg.
Series [20] can be described thus: in vivo. Particulars: rat, iv.
Series [21] is described as follows: in vivo. Particulars: rat, po, 5 mg/kg. This is another data set of the same source.
Series [22] can be described thus: in vivo. The settings on record: rat, po, 5 mg/kg. This is another data set of the same source.
Series [23] is described as follows: in vivo. Particulars: rat, 5 mg/kg. This is another data set of the same source.
Series [24] in a line: in vivo. Particulars: rat, po, 5 mg/kg. The source holds these as a separate data set.
The nature of series [25]: physchem. The source holds these as a separate data set.
The nature of series [26]: in vivo. Particulars: rat, po, 3 mg/kg.
Series [27] can be described thus: in vivo. Particulars: rat, po, 3 mg/kg. The source holds these as a separate data set.
Series [28] is described as follows: in vivo. Particulars: rat, iv, 1 mg/kg.

≈ marks a conversion by molar mass, not a printed value. Bounds are passed on as bounds.

A word on the solubility: it is the concentration that dissolves in the medium under given conditions. The low end stands for little dissolved substance, the high end for much dissolved substance. The term EC50 denotes the concentration giving half of the maximal effect. Low readings indicate an effect from little substance, high ones a need for much substance. What is called bioavailability is the share of a dose that reaches the circulation, judged against a reference dose that is usually intravenous. Read a high bioavailability as much systemic uptake. What is called logD is the decadic logarithm of the distribution of all forms, ionised or not, between an organic phase and buffer at a given pH. Lower therefore signals lower lipophilicity. Usually Papp A→B stands for how fast a substance crosses the layer from the apical side. Broadly, the fraction unbound is free concentration divided by total concentration. Higher therefore signals much free substance. Usually Tmax stands for the time from dosing to the highest level. What is called half-life is the time needed for the level to fall by half in the phase considered. Low readings indicate rapid decline, high ones slow decline. One may read the efflux ratio as a quotient of directional permeabilities that is used to spot active efflux. What is called AUC(0-inf) is total exposure, with the tail of the curve extrapolated. Higher therefore signals high exposure. One may read the Vd as a proportionality between amount in the body and measured concentration, not a real space. For orientation: Cmax means the maximum level reached in the sampled fluid or tissue. As a reminder, the pKa is the negative logarithm of the acid dissociation constant. The low end stands for a stronger acid or weaker base, the high end for a weaker acid or stronger base. On to `Cc1c(N2CC[C@@H](C3(N)CC3)C2)c(F)cc2cc(C(=O)O)c(=O)n(C3CC3)c12`, for which the MIC with Streptococcus pneumoniae is no more than 0.03 µg/mL; against Staphylococcus aureus [3], 0.5 µg/mL (≈ 1.3 µM); against Enterococcus faecalis, 0.25 µg/mL (≈ 0.649 µM); in the series on Staphylococcus aureus [8], 1 µg/mL (≈ 2.59 µM); in the series with Staphylococcus aureus [10], 0.06 µg/mL (≈ 0.156 µM). Moreover, the solubility at 24 h in the series “physchem [1]” amounted to 623 µg/mL (≈ 1620 µM). Further, the EC50 with K562 and with HepG2 was greater than 100 µM each time. The compound further yielded a bioavailability at 24 h in “in vivo [2]” of 70%. The same compound came in with a pH-dependent lipophilicity (logD) in “physchem [4]” of -0.34. Besides, in the series “in vitro [5]”, the Papp A→B at 2 h, 10 µM is 23.1 ×10⁻⁶ cm/s. The figures for the fraction unbound at 4 h, 10 µM in “in vitro [6]”, in the series “in vitro [7]” and in “in vitro [13]” were 0.21, 0.49 and 0.3, respectively. In addition, the Tmax at 24 h in the series “in vivo [9]” stood at 0.67 h. This compound showed a half-life at 24 h in the series “in vivo [11]” of 2.56 h. In addition, the efflux ratio in the series “in vitro [12]” is 0.91. In “in vivo [14]”, the AUC(0-inf) at 24 h worked out at 5.85 µM·h. The same compound yielded a Vd at 24 h in “in vivo [15]” of 0.75 L/kg. In “in vivo [16]”, this compound returned a Cmax at 24 h of 1710 nM. The same compound displayed a pKa in “physchem [17]” of 5.1.

For the compound `Cc1c(N2CC[C@@H]([C@H](C)N)C2)c(F)cc2cc(O)c(=O)n(C3CC3)c12`, the EC50 in the series on K562 stood at 65 µM; with HepG2, 74 µM. This compound also had an MIC with Staphylococcus aureus [8] of 0.5 µg/mL (≈ 1.45 µM). The pKa in “physchem [17]” was found to be 8.2.

Broadly, the clearance is a measure of how efficiently the substance is removed, as volume per time. Read a high clearance as efficient removal. As to `Cc1c(N2CCC(C3(N)CC3)C2)c(F)cc2c(CC(=O)N(C)C)cc(=O)n(C3CC3)c12` (stereo unspecified), the Tmax at 24 h in “in vivo [18]” turned out to be 1.17 h. Also, in the series “physchem [4]”, the logD came to 0.27. The Vd at 24 h in the series “in vivo [19]” was determined as 3.3 L/kg. For the same compound, the half-life at 24 h in “in vivo [20]” was 1.61 h. For the same compound, the fraction unbound at 4 h, 10 µM in the series “in vitro [6]” was 0.57; in the series “in vitro [7]”, 0.58; in the series “in vitro [13]”, 0.33. The compound also displayed a Cmax at 24 h in “in vivo [21]” of 78 nM. The bioavailability at 24 h in the series “in vivo [22]” was 32.5%. The MIC stood at 1 µg/mL (≈ 2.34 µM) against Staphylococcus aureus [8] and 2 µg/mL (≈ 4.69 µM) with Staphylococcus aureus [10]. In addition, the clearance at 24 h in the series “in vivo [23]” came out at 49.3 mL/min/kg. The AUC(0-inf) at 24 h in the series “in vivo [24]” is 0.26 µM·h. The compound also gave a pKa in the series “physchem [17]” of 8.5.

As for `Cc1c(N2CCC(C3(N)CC3)C2)c(F)cc2c(Cc3n[nH]c(=O)o3)cc(=O)n(C3CC3)c12` (stereo unspecified), in “in vivo [18]”, the Tmax at 24 h came out at 0.5 h. The compound also showed a log distribution coefficient (logD) in the series “physchem [4]” of 0.24. The same compound displayed a Vd at 24 h in “in vivo [19]” of 1.3 L/kg. This compound gave a half-life at 24 h in “in vivo [20]” of 0.99 h. The fraction unbound at 4 h, 10 µM in the series “in vitro [6]” is 0.27; in the series “in vitro [7]” it was 0.4; in the series “in vitro [13]”, 0.15. The same compound yielded a maximum concentration (Cmax) at 24 h in the series “in vivo [21]” of 51 nM. In “in vivo [22]”, this compound had a bioavailability at 24 h of 14.9%. Further, the MIC in the series with Staphylococcus aureus [8] worked out at 0.5 µg/mL (≈ 1.14 µM); in the series on Staphylococcus aureus [10] it was 1 µg/mL (≈ 2.28 µM). Moreover, in the series “in vivo [24]”, the AUC(0-inf) at 24 h came out at 0.12 µM·h. Besides, the pKa in the series “physchem [25]” stood at 7.2.

`C[C@H]1COc2c(N3CC4CC(F)(F)C[C@@H](N)[C@H]4C3)c(F)cc3cc(C(=O)O)c(=O)n1c23` (single isomer, unassigned) showed a logD in the series “physchem [4]” of -0.26. Also, the fraction unbound at 4 h, 10 µM was 0.18 in “in vitro [6]”, 0.41 in the series “in vitro [7]” and 0.42 in the series “in vitro [13]”. The Tmax at 24 h in “in vivo [26]” was 2 h. Also, the MIC is 0.06 µg/mL (≈ 0.137 µM) against Staphylococcus aureus [8] and no more than 0.03 µg/mL against Staphylococcus aureus [10]. In “in vivo [27]”, this compound registered a Cmax at 24 h of 1700 nM. Besides, the half-life at 24 h in “in vivo [28]” was 3.46 h. Also, the pKa in “physchem [17]” was 5.1.

On to `C[C@H]1COc2c(N3CC4[C@H](C3)[C@H](N)CCC4(F)F)c(F)cc3cc(C(=O)O)c(=O)n1c23` (single isomer, unassigned), for which the logD in the series “physchem [4]” is -0.78. Moreover, the results for the MIC against Staphylococcus aureus [8] and against Staphylococcus aureus [10] were 0.125 µg/mL (≈ 0.286 µM) and no more than 0.03 µg/mL, respectively. In the series “physchem [17]”, this compound showed a pKa of 5.1.

Take `COc1c(N2C[C@@H]3CCCN[C@@H]3C2)c(F)cc2c(=O)c(C(=O)O)cn(C3CC3)c12` [MOXIFLOXACIN]: the EC50 with K562 and in the series with HepG2 was greater than 100 µM each time. Also, the MIC in the series with Staphylococcus aureus [8] turned out to be 4 µg/mL (≈ 9.96 µM); with Staphylococcus aureus [10], 0.06 µg/mL (≈ 0.149 µM). In “physchem [17]”, this compound gave a pKa of 6.7.
